Laboratory results: patent US8236818B2, “Substituted imidazopyridine derivatives as melanocortin-4 receptor antagonists” (Santhera Pharmaceuticals (Schweiz) AG, priority 2007, dated 2012)

Experiments:
[1] = biological target: T1, melanocortin-4 receptor (Homo sapiens, UniProt P32245); test: Membrane binding assay (fluorescence polarization, competition with fluorescence labeled NDP-alpha-MSH); conditions: read-out: hMC-4R binding assay IC50/μM
T1 construct: expressed in transfected cells; host or cells: HEK293 cells (membrane preparations)
T1 sequence (P32245 whole entry): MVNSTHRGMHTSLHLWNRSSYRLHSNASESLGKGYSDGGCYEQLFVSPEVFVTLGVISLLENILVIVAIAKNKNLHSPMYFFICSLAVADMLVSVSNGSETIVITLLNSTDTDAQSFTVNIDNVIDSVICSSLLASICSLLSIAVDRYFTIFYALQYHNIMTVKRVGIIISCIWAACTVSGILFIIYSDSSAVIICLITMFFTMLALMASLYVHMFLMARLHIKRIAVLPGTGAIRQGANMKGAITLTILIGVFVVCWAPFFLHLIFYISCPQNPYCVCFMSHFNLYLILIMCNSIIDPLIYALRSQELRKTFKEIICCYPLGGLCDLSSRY

[2] = biological target: T1, melanocortin-4 receptor; test: Functional assay (cAMP fluorescence polarization, membrane based, agonistic activity); format: biochemical; conditions: for Emax: 2 h, read-out: % activation functional assay; for EC50: agonistic activity, cAMP, HEK293 membrane preparations, read-out: hMC-4R functional assay EC50/μM

IC50 [1] [µM] | Emax [2] [%] | EC50 [2] [µM] | Structure (SMILES)
0.1 to 1 | 0 |  | CC(C)CCN(CCC(C)C)C(=O)c1ccc2nc(-c3ccc(C(=O)N(C)C)cc3)c(CCCN3CCCC3)n2c1 [Example 63]
< 0.1 | 0 |  | CNC(=O)c1ccc(-c2nc3ccc(C(=O)N(CCC(C)C)CCC(C)C)cn3c2CCCN2CCCC2)cc1 [Example 64]
< 0.1 | 0 |  | CC(C)CCN(CCC(C)C)C(=O)c1ccc2nc(-c3ccc(N)nc3)c(CCCN3CCCC3)n2c1 [Example 65]
0.1 to 1 | 0 |  | CC(C)CCN(CCC(C)C)C(=O)c1ccc2nc(-c3ccc(Cl)nc3)c(CCCN(C)C)n2c1 [Example 66]
< 0.1 | 0 |  | CC(C)CCN(CCC(C)C)C(=O)c1ccc2nc(-c3ccc(Cl)nc3)c(CCCN3CCCC3)n2c1 [Example 67]
0.1 to 1 | 0 |  | CC(C)CCN(CCC(C)C)C(=O)c1ccc2nc(-c3ccc(=O)[nH]c3)c(CCCN(C)C)n2c1 [Example 68]
< 0.1 | 0 |  | CC(C)CCN(CCC(C)C)C(=O)c1ccc2nc(-c3ncco3)c(CCCN3CCCC3C)n2c1 (stereo not shown) [Example 69]
0.1 to 1 | 0 |  | CC(C)CCN(CCC(C)C)C(=O)c1ccc2nc(-c3ncco3)c(CCCN3CCC[C@@H]3CO)n2c1 [Example 70]
0.1 to 1 | 0 |  | CC(C)CCN(CCC(C)C)C(=O)c1ccc2nc(-c3ncco3)c(CCCN3CC[C@@H](O)C3)n2c1 [Example 71]
0.1 to 1 | 2 |  | CC(C)CCN(CCC(C)C)C(=O)c1ccc2nc(-c3ncco3)c(CCCN3CC[C@@H](F)C3)n2c1 [Example 72]
0.1 to 1 | -3 |  | CC(C)CCN(CCC(C)C)C(=O)c1ccc2nc(-c3ncco3)c(CCCN3CC(O)C3)n2c1 [Example 73]
0.1 to 1 | 1 |  | CC(C)CCN(CCC(C)C)C(=O)c1ccc2nc(-c3ncco3)c(CCCN3CCC3)n2c1 [Example 74]
< 0.1 | 1 |  | CC(C)CCN(CCC(C)C)C(=O)c1ccc2nc(-c3ncco3)c(CCCN(C)C(C)C)n2c1 [Example 75]
0.1 to 1 | 4 |  | CC(C)CCN(CCC(C)C)C(=O)c1ccc2nc(-c3ncco3)c(CCCN3CCC[C@H]3CO)n2c1 [Example 76]
< 0.1 | 4 |  | CC(C)CCN(CCC(C)C)C(=O)c1ccc2nc(-c3ncco3)c(CCCN3CCC(O)CC3)n2c1 [Example 77]
< 0.1 | 2 |  | CC(C)CCN(CCC(C)C)C(=O)c1ccc2nc(-c3ncco3)c(CCCN3CC[C@H](F)C3)n2c1 [Example 78]
< 0.1 | 11 |  | CC(C)CCN(CCC(C)C)C(=O)c1ccc2nc(-c3ccc(OCCO)nc3)c(CCCN3CCCC3)n2c1 [Example 79]
0.1 to 1 | -35 | 0.1 to 1 | CC(C)CCN(CCC(C)C)C(=O)c1ccc2nc(-c3ncco3)c(CCCN3CC[C@H](O)C3)n2c1 [Example 80]
< 0.1 | -9 |  | CC(C)CCN(CCC(C)C)C(=O)c1ccc2nc(-c3ccc(=O)n(CCO)c3)c(CCCN3CCCC3)n2c1 [Example 81]
< 0.1 | -17 | < 0.1 | COc1ccc(-c2nc3ccc(C(=O)N(CCC(C)C)CCC(C)C)cn3c2CCCN2CCCC2)cn1 [Example 82]

IC50 [1] [µM] | Emax [2] [%] | EC50 [2] [µM] | Structure (SMILES)
< 0.1 | -1 |  | COc1ccc(-c2nc3ccc(C(=O)N(CCC(C)C)CCC(C)C)cn3c2CCCN(C)C)cn1 [Example 83]
< 0.1 | -8 |  | CC(C)CCN(CCC(C)C)C(=O)c1ccc2nc(-c3ncccn3)c(CCCN3CCCC3)n2c1 [Example 84]
< 0.1 | -2 |  | CC(C)CCN(CCC(C)C)C(=O)c1ccc2nc(-c3ncco3)c(CCCN3CCC[C@@H]3C)n2c1 [Example 85]
< 0.1 | -11 |  | CC(C)CCN(CCC(C)C)C(=O)c1ccc2nc(-c3ncco3)c(CCCN3CCC[C@H]3C)n2c1 [Example 86]
> 1 | 0 |  | CC(C)CCN(CCC(C)C)C(=O)c1ccc2nc(-c3cccnc3N)c(CCCN(C)C)n2c1 [Example 87]
0.1 to 1 | -2 |  | CC(C)CCN(CCC(C)C)C(=O)c1ccc2nc(-c3cc[nH]c(=O)c3)c(CCCN(C)C)n2c1 [Example 88]
< 0.1 | -25 | < 0.1 | CC(C)CCN(CCC(C)C)C(=O)c1ccc2nc(-c3cc[nH]c(=O)c3)c(CCCN3CCCC3)n2c1 [Example 89]
0.1 to 1 | -41 | > 1 | CC(C)CCN(CCC(C)C)C(=O)c1ccc2nc(-c3cccnc3N)c(CCCN3CCCC3)n2c1 [Example 90]
0.1 to 1 | -29 | 0.1 to 1 | CC(C)CCN(CCC(C)C)C(=O)c1ccc2nc(-c3ccc(=O)n(CCCO)c3)c(CCCN3CCCC3)n2c1 [Example 91]
0.1 to 1 | -31 | < 0.1 | CC(C)CCN(CCC(C)C)C(=O)c1ccc2nc(-c3ccc(OCCCO)nc3)c(CCCN3CCCC3)n2c1 [Example 92]
0.1 to 1 | 0 |  | CC(C)CCN(CCC(C)C)C(=O)c1ccc2nc(-c3ccc(=O)n(CC(C)O)c3)c(CCCN3CCCC3)n2c1 (stereo not shown) [Example 93]
> 1 | -13 |  | CC(C)CCN(CCC(C)C)C(=O)c1ccc2nc(-c3ccc(OCC(C)O)nc3)c(CCCN3CCCC3)n2c1 (stereo not shown) [Example 94]
< 0.1 | 0 |  | COCCn1cc(-c2nc3ccc(C(=O)N(CCC(C)C)CCC(C)C)cn3c2CCCN2CCCC2)ccc1=O [Example 95]
< 0.1 | 0 |  | COCCOc1ccc(-c2nc3ccc(C(=O)N(CCC(C)C)CCC(C)C)cn3c2CCCN2CCCC2)cn1 [Example 96]
< 0.1 | 1 |  | CC(=O)OCCOc1ccc(-c2nc3ccc(C(=O)N(CCC(C)C)CCC(C)C)cn3c2CCCN2CCCC2)cn1 [Example 97]
0.1 to 1 | -8 |  | CC(C)CCN(CCC(C)C)C(=O)c1ccc2nc(C3CCOCC3)c(CCCN3CCCC3)n2c1 [Example 98]
< 0.1 | 4 |  | CC(=O)OCCn1cc(-c2nc3ccc(C(=O)N(CCC(C)C)CCC(C)C)cn3c2CCCN2CCCC2)ccc1=O [Example 99]
< 0.1 | -22 |  | CC(C)CCN(CCC(C)C)C(=O)c1ccc2nc(-c3ccc(=O)[nH]c3)c(CCCN3CCCC3C)n2c1 (stereo not shown) [Example 100]
< 0.1 | -25 |  | CC(=O)OCCn1cc(-c2nc3ccc(C(=O)N(CCC(C)C)CCC(C)C)cn3c2CCCN2CCCC2C)ccc1=O (stereo not shown) [Example 101]
< 0.1 | -15 |  | CC(=O)OCCOc1ccc(-c2nc3ccc(C(=O)N(CCC(C)C)CCC(C)C)cn3c2CCCN2CCCC2C)cn1 (stereo not shown) [Example 102]

IC50 [1] [µM] | Emax [2] [%] | EC50 [2] [µM] | Structure (SMILES)
< 0.1 | -20 |  | CC(C)CCN(CCC(C)C)C(=O)c1ccc2nc(-c3ccc(=O)n(CCO)c3)c(CCCN3CCCC3C)n2c1 (stereo not shown) [Example 103]
< 0.1 | -15 |  | CC(C)CCN(CCC(C)C)C(=O)c1ccc2nc(-c3ccc(OCCO)nc3)c(CCCN3CCCC3C)n2c1 (stereo not shown) [Example 104]
0.1 to 1 | -24 |  | CC(=O)OCCn1cc(-c2nc3ccc(C(=O)N(CCC4CC4)CCC4CC4)cn3c2CCCN2CCCC2)ccc1=O [Example 105]
0.1 to 1 | 0 |  | CC(=O)OCCOc1ccc(-c2nc3ccc(C(=O)N(CCC4CC4)CCC4CC4)cn3c2CCCN2CCCC2)cn1 [Example 106]
0.1 to 1 | -17 |  | O=C(c1ccc2nc(-c3ccc(=O)n(CCO)c3)c(CCCN3CCCC3)n2c1)N(CCC1CC1)CCC1CC1 [Example 107]
0.1 to 1 | -19 |  | O=C(c1ccc2nc(-c3ccc(OCCO)nc3)c(CCCN3CCCC3)n2c1)N(CCC1CC1)CCC1CC1 [Example 108]
< 0.1 | -23 |  | CC1CCCN1CCCc1c(-c2ccc(=O)[nH]c2)nc2ccc(C(=O)N(CCC3CC3)CCC3CC3)cn12 (stereo not shown) [Example 109]
0.1 to 1 | -23 |  | CC(=O)OCCn1cc(-c2nc3ccc(C(=O)N(CCC4CC4)CCC4CC4)cn3c2CCCN2CCCC2C)ccc1=O (stereo not shown) [Example 110]
0.1 to 1 | -25 |  | CC1CCCN1CCCc1c(-c2ccc(=O)n(CCO)c2)nc2ccc(C(=O)N(CCC3CC3)CCC3CC3)cn12 (stereo not shown) [Example 111]
< 0.1 | -9 |  | CC1CCCN1CCCc1c(-c2ccc(OCCO)nc2)nc2ccc(C(=O)N(CCC3CC3)CCC3CC3)cn12 (stereo not shown) [Example 112]
0.1 to 1 | 0 |  | CC(C)CCN(CCC(C)C)C(=O)c1ccc2nc(-c3ccc(C#N)cc3)c(CN3CCC(N(C)C)CC3)n2c1 [Example 113]
0.1 to 1 | 0 |  | COc1cccc(-c2nc3ccc(C(=O)N(CCC(C)C)CCC(C)C)cn3c2CN2CCC(N(C)C)CC2)c1 [Example 114]
0.1 to 1 | 0 |  | COc1cccc(-c2nc3ccc(C(=O)N(CCC(C)C)CCC(C)C)cn3c2CN2CCC(N)CC2)c1 [Example 116]
0.1 to 1 | 0 |  | CC(C)CCN(CCC(C)C)C(=O)c1ccc2nc(-c3ccc(Cl)cc3)c(CN3CCC(N)CC3)n2c1 [Example 117]
0.1 to 1 | 0 |  | CC(C)CCN(CCC(C)C)C(=O)c1ccc2nc(-c3ccc(F)cc3)c(CN3CCC(N)CC3)n2c1 [Example 118]
> 1 | 0 |  | CC(C)CCN(CCC(C)C)C(=O)c1ccc2nc(-c3cccc(Cl)c3)c(CN3CCC(N)CC3)n2c1 [Example 120]
> 1 | 0 |  | COc1cccc(-c2nc3ccc(C(=O)N(CCC(C)C)CCC(C)C)cn3c2CN2CCNCC2)c1 [Example 121]
0.1 to 1 | 0 |  | CC(C)CCN(CCC(C)C)C(=O)c1ccc2nc(-c3cccc(C#N)c3)c(CN3CCC(N)CC3)n2c1 [Example 122]
> 1 | 0 |  | COc1cccc(-c2nc3ccc(C(=O)N(CCC(C)C)CCC(C)C)cn3c2CN2CCC(N)C2)c1 (stereo not shown) [Example 123]
